Data reported in paper PMC10439952, “JT002, a small molecule inhibitor of the NLRP3 inflammasome for the treatment of autoinflammatory disorders” (Scientific Reports, 2023).

What was measured:
[1] = test system: intracellular caspase-1 activity; experiment: Intracellular caspase-1 activity in human PBMCs stimulated with LPS + nigericin (Caspase-Glo); assay type: cell-based; conditions: Human PBMC, read-out: Geo Av IC50, Caspase-1
Method: Cell viability was determined by addition of an equal volume of CellTiter-Glo® 2.0 reagent (Promega) to the remaining cells/supernatant in each well. Intracellular Caspase-1 activity was measured using the Caspase-Glo® assay (Promega) according to the manufacturer’s instructions. The biochemical capsase-1 assay was conducted at Reaction Biology Corporation (Malvern, USA). Human IL-1β, IL-1α, and TNFα and mouse IL-1β were measured in cell culture supernatants using homogeneous time resolved fluorescence assay kits (HTRF, Cisbio, Codolet, France). Human IL-18 was measured in cell culture supernatants using an ELISA kit (R&D Systems, Minneapolis, MN, USA). Plasma IL-1β concentrations were determined by Quantikine® ELISA (R&D Systems, Minneapolis, MN).
4H). MS: m/z 433.1 (M+H+).
Inflammasome activation.PBMCs (iXCells Biotechnologies, San Diego, USA) were thawed the day before the assay and seeded in complete medium (RPMI 1640 medium with GlutaMAX, supplemented with an additional 2.5 g/L D-glucose, 10% Fet al Bovine Serum, 100 mM Sodium Pyruvate, 1% Penicillin/Streptomycin, 10 mM HEPES and 0.05 mM β -mercaptoethanol) in polystyrene V-bottom 96-well plates at 5x10^4 cells per well and incubated overnight at 37°C with 5% CO 2. The next day, PBMC media was r eplaced with serum-fr ee media p rior t o the assay. […]

[2] = biological target: T1, NLRP3 inflammasome assembly (ASC speck) (Mus musculus, UniProt Q8R4B8); experiment: Inhibition of ASC speck formation by immunofluorescence in LPS + nigericin treated mouse BMDMs; assay type: cell-based
T1 construct: host or cells: mouse PBMCs; mouse bone-marrow derived macrophages; mouse whole blood (C57BL/6 in the ex vivo study)
T1 sequence (Q8R4B8 whole entry): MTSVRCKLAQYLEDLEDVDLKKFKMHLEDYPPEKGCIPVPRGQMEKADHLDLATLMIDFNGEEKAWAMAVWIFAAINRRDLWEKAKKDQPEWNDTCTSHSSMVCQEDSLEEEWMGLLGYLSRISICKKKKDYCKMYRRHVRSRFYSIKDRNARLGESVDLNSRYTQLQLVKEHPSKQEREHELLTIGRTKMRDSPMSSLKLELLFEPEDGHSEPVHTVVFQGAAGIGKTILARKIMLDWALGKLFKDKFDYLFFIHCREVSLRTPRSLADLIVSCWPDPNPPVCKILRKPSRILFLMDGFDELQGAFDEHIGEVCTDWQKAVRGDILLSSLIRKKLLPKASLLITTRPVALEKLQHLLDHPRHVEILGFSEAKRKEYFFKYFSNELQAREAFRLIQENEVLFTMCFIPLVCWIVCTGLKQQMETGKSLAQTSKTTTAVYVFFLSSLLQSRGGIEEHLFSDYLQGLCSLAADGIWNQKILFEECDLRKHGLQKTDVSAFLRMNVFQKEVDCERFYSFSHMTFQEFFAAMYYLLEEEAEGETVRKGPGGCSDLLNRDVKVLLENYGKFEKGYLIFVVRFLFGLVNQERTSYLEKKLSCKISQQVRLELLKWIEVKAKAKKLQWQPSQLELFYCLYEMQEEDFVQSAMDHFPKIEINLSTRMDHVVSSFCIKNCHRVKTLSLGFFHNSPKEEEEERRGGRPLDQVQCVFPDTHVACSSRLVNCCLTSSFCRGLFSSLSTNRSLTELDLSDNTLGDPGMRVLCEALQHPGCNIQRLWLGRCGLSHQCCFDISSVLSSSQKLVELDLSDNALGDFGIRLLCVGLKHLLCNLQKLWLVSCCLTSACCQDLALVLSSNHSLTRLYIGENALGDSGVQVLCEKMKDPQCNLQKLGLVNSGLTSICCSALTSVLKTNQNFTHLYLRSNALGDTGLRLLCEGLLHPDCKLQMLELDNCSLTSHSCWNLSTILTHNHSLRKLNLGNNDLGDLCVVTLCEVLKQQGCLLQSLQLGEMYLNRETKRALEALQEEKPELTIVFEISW
Method: Mouse BMDMs (2.5 × 10^4 cells/well) were plated in Collagen-IV coated 96-well plates. On the day of the assay, cells were washed with serum-free media then primed with 100 ng/mL LPS for 3 h in DMEM/F12 (1:1) containing L-glutamine. JT002 or DMSO was added to each well and incubated at 37 °C for 30 min prior to stimulation with 10 μM nigericin for 1.5 h. Cells were briefly centrifuged, rinsed with PBS, and fixed with 4% formaldehyde in PBS overnight at 4 °C. Cells were blocked and permeabilized in PBS with 10% goat serum, 1% FBS, 0.5% Triton X-100 for 30 min at 37 °C and incubated with ASC antibody (Millipore-Sigma, Cat #04-147) overnight at 4 °C. Cells were incubated with anti-mouse IgG Alexa Fluor-488 for 1 h at 37 °C. Nuclei were stained with Hoechst 33342 in PBS for 5 min and imaged using a CellInsight CX7 High-Content Screening Platform (ThermoFisher) at Phenovista Biosciences (San Diego, CA, USA).

IC50 [1]: 8 nM
IC50 ([2]; Mouse BMDM, read-out: Geo Av IC50, ASC specks): 3 nM
ASC speck formation ([2]; mBMDMs, 2 µM JT002 prior to NLRP3 activation): completely prevented ASC speck formation
Compound: CO[C@@H]1COc2c(S(=O)(=O)NC(=O)Nc3c4c(cc5c3CCC5)CCC4)cnn2C1 [JT002]
